Assays:
[1] = test system: plasma LH; experiment: Example II: plasma LH and LH pulsatility during 3-day letrozole regimen; assay type: in vivo, cattle
Procedure: Four days after follicular ablation, heifers were given 500 μg of cloprostenol (PGF, Estrumate, Schering-Plough Animal Health, Pointe-Claire, QC, Canada) intramuscularly (im) to induce regression of the CL and to synchronize ovulation. The experiment was performed in two replicates (n=20-27 per replicate) and each heifer was used only once. In replicate 1, heifers were assigned randomly at the time of ovulation (Day 0) to the following groups and given a 3-day regimen of letrozole from Days 1 to 3 (n=5), Days 3 to 5 (n=5), Days 5 to 7 (n=5), or no treatment (control group, n=5). In replicate 2, heifers were similarly assigned to groups and given letrozole from Days 1 to 3, (n=5), Days 3 to 5 (n=4), or Days 5 to 7 (n=4), but untreated control heifers were arranged in three sub-groups to serve as contemporaneous controls for each letrozole-group during intensive blood sampling periods (i.e., control Days 1 to 3, n=4; control Days 3 to 5, n=4; and control Days 5 to 7, n=5). For practical purposes, the total dose of letrozole (250 μg/kg) was calculated on the basis of an average weight of 350 kg for all heifers and administered intravenously in daily divided doses over 3 days (85 μg/kg per day). For intravenous injection, letrozole was prepared in 95% ethanol to a final concentration of 5 mg/ml, resulting in an injection volume of 6 mL/day.
Blood samples were collected by jugular or coccygeal venipuncture into 10 ml heparinised, vacuum tubes (Vacutainer tubes; Becton Dickinson Vacutainer Systems, Franklin Lakes, N.J., USA). Blood samples were collected daily from pre-treatment ovulation to post-treatment ovulation. In replicate 1, additional samples were collected from letrozole-treated heifers every 12 hours from the beginning of treatment to first wave emergence. In replicate 2, heifers were sampled at 15 minute intervals for the first 8 hours after the second dose of letrozole (i.e., second day of treatment) using an indwelling jugular catheter, as described previously. Blood samples were centrifuged at 1500×g for 20 minutes, and plasma was separated and stored in plastic tubes at −20° C.
Plasma LH concentrations were determined in duplicate using a double-antibody radioimmunoassay (NIDDK-bLH4). The minimum and maximum values along the standard curve were 0.06 and 8 ng/mL, respectively. The intra- and inter-assay coefficients of variation were 7.9% and 2.5%, respectively, for low reference samples (mean, 0.85 ng/mL) and 8.6% and 9.5%, respectively, for high reference samples (mean, 2.5 ng/mL).
(§1) Statistical analyses were done using the Statistical Analysis System software package (SAS Learning Edition 9.1, 2006; SAS Institute Inc., Cary, N.C., USA). Time-series hormone data, plasma letrozole concentration, and follicular and luteal diameter profiles were analysed by repeated measures, using the PROC MIXED procedure. The main effects were treatment, time, and their interactions. […] Single point measurements (interwave and interovulatory intervals, interval from ovulation to onset of CL regression, mean and basal LH concentrations, LH pulse amplitude and frequency, and pharmacokinetic parameters for letrozole) were analysed by analysis of variance. […] If significant main effects or interactions (P≦0.05) were detected, Tukey's post-hoc test was used for multiple comparisons.
Due to individual variability in circulating hormone concentrations among heifers, and because our objective was to determine the effect of treatment within individuals, data on LH and FSH concentrations were transformed to a percentage of the mean concentration of the two first data points collected (Days 0 and 1) for each individual heifer before analysis of variance for repeated measures. For the same reasons, estradiol concentrations were transformed to a percentage of the mean concentration of two pre-treatment data points ([…] each individual heifer before statistical analysis. […]

[2] = test system: Hereford-cross beef heifers; experiment: Example II: computer-assisted ultrasound image analysis of CL and dominant follicle; assay type: in vivo, cattle
Procedure: Ultrasound images from a subset of letrozole-treated (n=4-5 per group) and control (n=6) heifers were recorded throughout the duration of treatment for computer-assisted image analysis. Images were analyzed using a series of custom-developed computer algorithms optimized for ultrasonography ([…] Version 2.8© Saskatoon, Saskatchewan) on a Sun Sparc Station (Sun Microsystems, MT View, Calif.) computer. Echotexture was defined in terms of mean pixel value and pixel heterogeneity. Mean pixel values were quantified using a grey-scale ranging from 0 (black) to 255 (white). The pixel heterogeneity was the standard deviation of grey-scale values of all the pixels within the user-defined region of measurement. Spot analysis of the follicular antrum and corpus luteum, and line analysis of the peripheral antrum, follicular wall and stroma were done as previously described. For spot analyses, the follicular antrum and the CL wall were divided into four quadrants and the sampling area encompassed 75 to 80% of each quadrant. For line analyses, a straight line was drawn transversing the follicular wall from peripheral antrum to stroma and the pixel values along that line were measured in areas located within the 10 and 2 o'clock position of the follicles.
as §1

[3] = treatment period Day 1-3, 15 min samples over 8 hours
[4] = treatment period Day 3-5, 15 min samples over 8 hours
[5] = treatment period Day 5-7, 15 min samples over 8 hours

With `N#Cc1ccc(C(c2ccc(C#N)cc2)n2cncn2)cc1` [Letrozole, letrozole] the “plasma LH concentrations among groups, daily samples” value ([1]; 3-day regimen) was “No significant differences”, the “plasma LH, percent of the mean of Days 0 and 1” value ([1]; AM samples collected during treatment) was 93.6±14.85% and the “Basal LH” value [1, 3] was 0.38 ± 0.11 ng/mL. The LH pulse amplitude [1, 3] was 0.46 ± 0.15 ng/mL, the LH pulse frequency [1, 3] was 0.95 pulses/h and the “Mean LH” value ([1]; treatment period Day 1-3, 15 min samples over 8 hours after second dose) was 0.52 ± 0.15 ng/mL. For the same compound, the “Basal LH” value [1, 4] was 0.08 ± 0.03 ng/mL, the LH pulse amplitude [1, 4] was 0.40 ± 0.18 ng/mL and the LH pulse frequency [1, 4] was 0.53 pulses/h. The “Mean LH” value [1, 4] was 0.15 ± 0.5 ng/mL, the “Basal LH” value [1, 5] was 0.13 ± 0.02 ng/mL and the LH pulse amplitude [1, 5] was 0.88 ± 0.37 ng/mL. The LH pulse frequency [1, 5] was 0.41 pulses/h, the “Mean LH” value [1, 5] was 0.21 ± 0.04 ng/mL and the “mean pixel values and heterogeneity of the dominant follicle antrum (spot analysis)” value ([2]; 3-day regimen, any of the three periods) was “not affected significantly”. The “mean pixel values of the dominant follicle wall (line analysis), pre- to post-treatment” value ([2]; treated Days 1 to 3, P<0.06) was “increased”, the “mean pixel values or heterogeneity along the follicular wall (line analysis)” value ([2]; treated Days 3 to 5 (printed Days 3 and 5)) was “no effect” and the “mean pixel values or heterogeneity along the follicular wall (line analysis)” value ([2]; treated Days 5 to 7 (printed Days 5 and 7)) was “no effect”.
